Series [1] has as its target T1, nucleoside transport protein (Homo sapiens, UniProt Q99808).
T1 construct: tissue Blood Bank, Leiden University Medical Center; host or cells: human erythrocyte membranes (ghosts) from whole human blood
T1 sequence (Q99808 1-456): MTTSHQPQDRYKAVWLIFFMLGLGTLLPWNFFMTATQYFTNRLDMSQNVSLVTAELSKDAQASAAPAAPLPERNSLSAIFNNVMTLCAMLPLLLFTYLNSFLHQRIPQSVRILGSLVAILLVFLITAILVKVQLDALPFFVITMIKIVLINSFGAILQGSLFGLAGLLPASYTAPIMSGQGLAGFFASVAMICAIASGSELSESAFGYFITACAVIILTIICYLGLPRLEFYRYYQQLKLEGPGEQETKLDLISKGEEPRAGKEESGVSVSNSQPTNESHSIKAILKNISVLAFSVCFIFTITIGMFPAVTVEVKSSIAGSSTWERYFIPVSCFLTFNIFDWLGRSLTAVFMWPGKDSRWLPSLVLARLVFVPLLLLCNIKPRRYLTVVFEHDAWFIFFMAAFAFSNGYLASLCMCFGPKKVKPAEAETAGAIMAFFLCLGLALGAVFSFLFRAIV
The series is described as follows: [3H]NBTI radioligand binding assay on human erythrocyte membranes. To be noted: for affinity / activity in words: comparison within the series, [3H]NBTI binding. How it is done: All final products were tested in a radioligand binding assay.
Erythrocytes and membrane preparation. Whole human blood (Blood Bank, Leiden University Medical Center) was stirred in lysis buffer (½ v/v, 10 mM MgCl2 in 10 mM Tris HCl, pH 8.0 at 25° C.) for 1 h. After homogenization it was centrifuged for 50 min at 19,000 rpm. The supernatant was removed and the pellet was dissolved in ice-cold water and centrifuged again for 50 min. This procedure was repeated two more times. After removal of the last supernatant 25 mL of buffer (50 mM Tris HCl, pH 7.4 at 25° C.) was added to the final pink pellet. This suspension was homogenized and the ghosts were collected. Aliquots were stored at −80° C. until further use.
Saturation and displacement equilibrium NBTI binding to membranes prepared from human erythrocytes (ghosts) was determined at 25° C. based on a method previously described.

[2] abbreviates: human erythrocyte membranes, [3H]NBTI 1.5 nM, 30 minutes at 25° C., Tris.HCl pH 7.4, read-out: Binding (Nucleoside Transporter (Ki)).
Where [3] appears, read: inhibition of equilibrium binding of [3H]NBTI, Table 1, read-out: Ki(nM), affinity for the nucleoside transport protein on human erythrocyte membranes.

Structures are written as SMILES. “Also recorded” adds a separate entry of the source. Read-outs that look alike come from different tables or passages of the source. Marks after values point to notes of the source that are not given here.

Results on 29 compounds are retold here after US7358235B2, “Analogs of nitrobenzylthioinosine” (Gruenenthal GmbH, priority 2002, dated 2008).

Broadly, the Ki is the dissociation constant of the complex between target and ligand, obtained from inhibition or displacement. For orientation: melting point means the temperature, or range, at which the solid turns liquid.

In the case of `O=[N+]([O-])c1ccc(CSc2ncnc3c2ncn3C2CCCCO2)cc1` (stereo not drawn) [Example 15, 6-(4-Nitro-benzylsulfanyl)-9-(tetrahydro-pyran-2-yl)-9H-purine], the Ki in series [1] (setting [2]) and in series [1] (setting [3]) was 1200 nM throughout.
As to `O=[N+]([O-])c1ccc(CSc2ncnc3c2ncn3C2CCCO2)cc1` (stereo not drawn) [Example 43], the “affinity / activity in words” value in series [1] was “decrease in activity compared to compound 53”.
In the case of `OCC1OC(n2cnc3c(SCc4ccccc4)cc(Cl)nc32)C(O)C1O` (stereo not drawn) [Example 23, 2-(7-Benzylsulfanyl-5-chloro-imidazo[4,5-b]pyridin-3-yl)-5-hydroxymethyl-tetrahydro-furan-3,4-diol], in series [1], the “affinity / activity in words” value was “decrease in affinity”. For the same compound, the inhibitory constant (Ki) in series [1] (setting [2]) and in series [1] (setting [3]) was 670 nM in each case.
For the compound `OCC1OC(n2cnc3c(SCc4cccc5nc[nH]c45)ncnc32)C(O)C1O` (stereo not drawn) [Example 12, 2-[6-(3H-Benzoimidazol-4-ylmethylsulfanyl)-purin-9-yl]-5-hydroxymethyl-tetrahydro-furan-3,4-diol], in series [1] (10 μM, [3H]NBTI, human erythrocyte membranes), the “Percentage of displacement at concentration of 10 μM” value was determined as 42%*. Besides, the “Binding (Nucleoside Transporter), percentage at 10 μM” value in series [1] (10 μM, human erythrocyte membranes, [3H]NBTI) is 42%.
On to `O=[N+]([O-])c1ccc(CSc2ncnc3c2ncn3C2CCCO2)cc1` (stereo not drawn) [Example 14, 6-(4-Nitro-benzylsulfanyl)-9-(tetrahydro-furan-2-yl)-9H-purine], for which the Ki in series [1] (setting [2]) and in series [1] (setting [3]) was 937 nM in each case.
Consider `O=[N+]([O-])c1ccc(CSc2ncnc3c2ncn3CCCO)cc1` [Example 25, 3-[6-(4-Nitro-benzylsulfanyl)-purin-9-yl]-propan-1-ol], for which, in series [1] (setting [2]), the Ki worked out at 130 nM.
In the case of `O=[N+]([O-])c1ccc(CSc2ncnc3c2ncn3C2CCCC2)cc1` [Example 48], in series [1], the “affinity / activity in words” value was “decrease in activity compared to a simple n-butyl substituent”.
On to `OCC1OC(n2cnc3c(SCc4ccc5nonc5c4)ncnc32)C(O)C1O` (stereo not drawn) [Example 3, 2-[6-(Benzo[1,2,5]oxadiazol-5-ylmethylsulfanyl)-purin-9-yl]-5-hydroxymethyl-tetrahydro-furan-3,4-diol], for which, in series [1] (setting [3]), the Ki came out at 1.5 nM.
Still for that read-out and setting: the value for `OC[C@H]1O[C@@H](n2cnc3c(SCc4cc(Cl)cc5nonc45)ncnc32)[C@H](O)[C@@H]1O` [Compound 16] was 25 nM.
For `OCC1OC(n2cnc3c(SCc4cccc5nonc45)ncnc32)C(O)C1O` (stereo not drawn) [Example 4], the Ki in series [1] (setting [3]) was 9.7 nM.
For `O=[N+]([O-])c1ccc(CSc2ncnc3c2ncn3CCCCOC2CCCCO2)cc1` (stereo not drawn) [Example 46], the “affinity / activity in words” value in series [1] is “higher affinity”.
In the case of `CCCCn1cnc2c(SCc3ccc([N+](=O)[O-])cc3)ncnc21` [Example 19, 9-Butyl-6-(4-nitro-benzylsulfanyl)-9H-purine], the Ki in series [1] (setting [2]) and in series [1] (setting [3]) was 238 nM throughout.
On to `OCC1OC(n2cnc3c(SCc4ccc5nsc(Br)c5c4)ncnc32)C(O)C1O` (stereo not drawn) [Example 10, 2-[6-(3-Bromo-benzo[c]isothiazol-5-ylmethylsulfanyl)-purin-9-yl]-5-hydroxymethyl-tetra hydro-furan-3,4-diol], for which the Ki in series [1] (setting [2]) is 42 nM.
Consider `OCC1OC(n2cnc3c(SCc4ccc5nsc(Br)c5c4)ncnc32)C(O)C1O` (stereo not drawn) [Example 31], for which the affinity gain in series [1] (bromination of 28 to yield 31) was 2.6 fold. Also, in series [1] (human erythrocyte membranes, [3H]NBTI, read-out: Ki), the Ki stood at 42 nM.
For the compound `OCC1OC(n2cnc3c(SCc4ccc5nsc(Br)c5c4)ncnc32)C(O)C1O` (stereo not drawn) [Example 2, 2-[6-(3-Bromo-benzo[c]isothiazol-5-ylmethylsulfanyl)-purin-9-yl]-5-hydroxymethyl-tetrahydro-furan-3,4-diol], in series [1] (setting [3]), the Ki turned out to be 42 nM.
For the compound `O=[N+]([O-])c1ccc(CSc2cc(Cl)nc3c2ncn3C2OC(CO)C(O)C2O)cc1` (stereo not drawn) [Example 24, 2-[5-Chloro-7-(4-nitro-benzylsulfanyl)-imidazo[4,5-b]pyridin-3-yl]-5-hydroxymethyl-tetrahydro-furan-3,4-diol], the “affinity / activity in words” value in series [1] is “decrease in affinity”. For the same compound, the Ki in series [1] (setting [2]) and in series [1] (setting [3]) was 47 nM each time. The “increase of affinity relative to 60” value in series [1] (introduction of a nitro group) is recorded as “approx. tenfold”.
Regarding `O=[N+]([O-])c1ccc(CSc2ncnc3c2ncn3Cc2ccccc2)cc1` [Example 26, 9-Benzyl-6-(4-nitro-benzylsulfanyl)-9H-purine], the melting point was found to be 139 °C. For the same compound, the Ki in series [1] (setting [2]) was determined as 135 nM.
In the case of `OCC1OC(n2cnc3c(SCc4ccc5nc[nH]c5c4)ncnc32)C(O)C1O` (stereo not drawn) [Example 11, 2-[6-(3H-Benzoimidazol-5-ylmethylsulfanyl)-purin-9-yl]-5-hydroxymethyl-tetra hydro-furan-3,4-diol], the Ki in series [1] (setting [2]) and in series [1] (setting [3]) was 191 nM throughout.
In the case of `O=[N+]([O-])c1ccc(CSc2ncnc3c2ncn3CCCCOC2CCCCO2)cc1` (stereo not drawn) [Example 16, 6-(4-Nitro-benzylsulfanyl)-9-[4-(tetrahydro-pyran-2-yloxy)-butyl]-9H-purine], the “affinity / activity in words” value in series [1] is given as “did not improve the binding affinity”. Further, the Ki in series [1] (setting [2]) and in series [1] (setting [3]) was 488 nM in each case.
Turning to `OCC1OC(n2cnc3c(SCc4cccc5conc45)ncnc32)C(O)C1O` (stereo not drawn) [Example 7, 2-[6-(Benzo[c]isoxazol-7-ylmethylsulfanyl)-purin-9-yl]-5-hydroxy methyl-tetrahydro-furan-3,4-diol], the Ki in series [1] (setting [3]) was 666 nM.
`OCC1OC(n2cnc3c(SCc4ccc5nc[nH]c5c4)ncnc32)C(O)C1O` (stereo not drawn) [Example 37]: the “affinity / activity in words” value in series [1] is recorded as “negative effect on affinity”.
As for `O=[N+]([O-])c1ccc(CSc2ncnc3c2ncn3C2CCCC2)cc1` [Example 18, 9-Cyclopentyl-6-(4-nitro-benzylsulfanyl)-9H-purine], the Ki in series [1] (setting [2]) and in series [1] (setting [3]) was 736 nM each time.
`OCC1OC(n2cnc3c(SCCc4ccccc4)ncnc32)C(O)C1O` (stereo not drawn) [Example 27, 2-Hydroxymethyl-5-(6-phenethylsulfanyl-purin-9-yl)-tetrahydro-furan-3,4-diol]: the Ki in series [1] (setting [2]) was 12 nM.
In the case of `O=[N+]([O-])c1ccc(CSc2ncnc3c2ncn3CCCCO)cc1` [Example 17, 4-[6-(4-Nitro-benzylsulfanyl)-purin-9-yl]-butan-1-ol], the Ki in series [1] (setting [2]) and in series [1] (setting [3]) was 1140 nM throughout.
As to `CCCCn1cnc2c(SCc3cccc4nonc34)ncnc21` [Example 20, 6-(Benzo[1,2,5]oxadiazol-4-ylmethylsulfanyl)-9-butyl-9H-purine], the Ki in series [1] (setting [2]) and in series [1] (setting [3]) was 5600 nM each time.
With `CCCCn1cnc2c(SCc3ccc4nsc(Br)c4c3)ncnc21` [Example 22, 6-(3-Bromo-benzo[c]isothiazol-5-ylmethylsulfanyl)-9-butyl-9H-purine], the Ki in series [1] (setting [2]) and in series [1] (setting [3]) was 682 nM throughout.
Take `OCC1OC(n2cnc3c(SCc4cccc5nc[nH]c45)ncnc32)C(O)C1O` (stereo not drawn) [Example 38]: the “affinity / activity in words” value in series [1] is reported as “negative effect on affinity; also recorded: reduced affinity when compared to their counterparts”.
Regarding `CCCCn1cnc2c(SCc3ccc4nscc4c3)ncnc21` [Example 21, 6-(Benzo[c]isothiazol-5-ylmethylsulfanyl)-9-butyl-9H-purine], the Ki in series [1] (setting [2]) and in series [1] (setting [3]) was 3100 nM throughout.
For `O=[N+]([O-])c1ccc(CSc2ncnc3c2ncn3C2CCCCO2)cc1` (stereo not drawn) [Example 44], in series [1], the “affinity / activity in words” value is reported as “decrease in activity compared to compound 53”.
